ChEMBL document CHEMBL1138637, “Discovery of potent pyrrolidone-based HIV-1 protease inhibitors with enhanced drug-like properties” (Bioorg Med Chem Lett, 2004)

What follows are compounds tested against T1, Human immunodeficiency virus type 1 protease (Human immunodeficiency virus 1, UniProt Q72874) (assay: Potency to inhibit HIV-1 protease).

Row | SMILES | Ki [nM]
1 | O=C(NCCN1CCOCC1)c1cccc(C[C@H]2C[C@H](Cc3ccccc3)N(C[C@@H](O)C[C@@H](Cc3ccccc3)C(=O)N[C@@H]3c4ccccc4C[C@H]3O)C2=O)c1 | 0.15
2 | O=C(NCCOCCO)c1cccc(C[C@H]2C[C@H](Cc3ccccc3)N(C[C@@H](O)C[C@@H](Cc3ccccc3)C(=O)N[C@@H]3c4ccccc4C[C@H]3O)C2=O)c1 | 0.24
3 | Nc1ccc(CC2C[C@H](Cc3ccccc3)N(C[C@@H](O)C[C@@H](Cc3ccccc3)C(=O)NC3c4ccccc4C[C@H]3O)C2=O)cc1 (stereo not given in full) | 2.3
4 | CCNC(=O)Nc1cccc(C[C@H]2C[C@H](Cc3ccccc3)N(C[C@@H](O)C[C@@H](Cc3ccccc3)C(=O)NC3c4ccccc4C[C@H]3O)C2=O)c1 (stereo not given in full) | 0.2
5 | O=C(NC1c2ccccc2C[C@H]1O)[C@H](Cc1ccccc1)C[C@H](O)CN1C(=O)C(Cc2ccncc2)C[C@@H]1Cc1ccccc1 (stereo not given in full) | 0.31
6 | C=CC[C@H]1C[C@H](Cc2ccccc2)N(C[C@@H](O)C[C@@H](Cc2ccccc2)C(=O)NC2c3ccccc3C[C@H]2O)C1=O (stereo not given in full) | 0.45
7 | NC(=O)c1cccc(C[C@H]2C[C@H](Cc3ccccc3)N(C[C@@H](O)C[C@@H](Cc3ccccc3)C(=O)N[C@@H]3c4ccccc4C[C@H]3O)C2=O)c1 | 0.1
8 | NC(=O)Cc1cccc(C[C@H]2C[C@H](Cc3ccccc3)N(C[C@@H](O)C[C@@H](Cc3ccccc3)C(=O)NC3c4ccccc4C[C@H]3O)C2=O)c1 (stereo not given in full) | 0.09
9 | N#CCOc1cccc(C[C@H]2C[C@H](Cc3ccccc3)N(C[C@@H](O)C[C@@H](Cc3ccccc3)C(=O)NC3c4ccccc4C[C@H]3O)C2=O)c1 (stereo not given in full) | 0.08
10 | CCOC(=O)CNC(=O)Nc1cccc(C[C@H]2C[C@H](Cc3ccccc3)N(C[C@@H](O)C[C@@H](Cc3ccccc3)C(=O)N[C@@H]3c4ccccc4C[C@H]3O)C2=O)c1 | 0.1
11 | NC(=O)c1cccc(C[C@H]2C[C@H](Cc3ccccc3)N(C[C@@H](O)C[C@@H](Cc3ccc(OCCO)cc3)C(=O)N[C@@H]3c4ccccc4C[C@H]3O)C2=O)c1 | 0.05
12 | N#Cc1ccc(CC2C[C@H](Cc3ccccc3)N(C[C@@H](O)C[C@@H](Cc3ccccc3)C(=O)NC3c4ccccc4C[C@H]3O)C2=O)cc1 (stereo not given in full) | 0.34
13 | N#Cc1cccc(CC2C[C@H](Cc3ccccc3)N(C[C@@H](O)C[C@@H](Cc3ccccc3)C(=O)NC3c4ccccc4C[C@H]3O)C2=O)c1 (single isomer, unassigned; diastereomer 1) | 0.05
14 | COC(=O)c1cccc(CC2C[C@H](Cc3ccccc3)N(C[C@@H](O)C[C@@H](Cc3ccccc3)C(=O)NC3c4ccccc4C[C@H]3O)C2=O)c1 (single isomer, unassigned; diastereomer 1) | 0.42
15 | O=C(NC1c2ccccc2C[C@H]1O)[C@H](Cc1ccccc1)C[C@H](O)CN1C(=O)C(Cc2cccc(O)c2)C[C@@H]1Cc1ccccc1 (single isomer, unassigned; diastereomer 1) | 0.05
16 | Nc1cccc(CC2C[C@H](Cc3ccccc3)N(C[C@@H](O)C[C@@H](Cc3ccccc3)C(=O)NC3c4ccccc4C[C@H]3O)C2=O)c1 (single isomer, unassigned; diastereomer 1) | 0.1
17 | O=C(NC1c2ccccc2C[C@H]1O)[C@H](Cc1ccccc1)C[C@H](O)CN1C(=O)C(Cc2cccnc2)C[C@@H]1Cc1ccccc1 (single isomer, unassigned; diastereomer 2) | 14
18 | O=C(NC1c2ccccc2C[C@H]1O)[C@H](Cc1ccccc1)C[C@H](O)CN1C(=O)C(Cc2cccnc2)C[C@@H]1Cc1ccccc1 (stereo in doubt) | 0.17

What follows are compounds tested against T1, Human immunodeficiency virus type 1 protease (assay: Concentration required to in inhibit HIV-1 protease by 50%).

Row | SMILES | IC50 [nM]
19 | C=CCC1OC[C@H](Cc2ccccc2)N(C[C@H](O)CN(CC2CCCC2)S(=O)(=O)c2ccc(OC)cc2)C1=O (stereo not given in full) | 2
20 | COc1ccc(S(=O)(=O)N(CC2CCCC2)C[C@@H](O)CN2C(=O)C(Cc3ccccc3)OC[C@@H]2Cc2ccccc2)cc1 (stereo not given in full) | 30
